Earlier results as cited in US7611910B2, “Method for diagnosis of alzheimer's disease” (Intracell, LLC, priority 1998, dated 2009).

Conditions: patients treated with indomethacin

**Q.** For `COc1ccc2c(c1)c(CC(=O)O)c(C)n2C(=O)c1ccc(Cl)cc1` [indomethacin], which “progression of Alzheimer's disease” value is on record?
**A.** The value was “reduced progression”.
